25 compounds from patent EP4685143A1 (Vivozon,Inc., priority 2023, dated 2024) can be followed below.

By IC50 is commonly meant the point on the concentration scale where inhibition reaches its midpoint. A high value points to lower potency.

The target in this experiment is T1, human HDAC6 enzyme (Homo sapiens, UniProt Q9UBN7).
T1 sequence (Q9UBN7 1-1215): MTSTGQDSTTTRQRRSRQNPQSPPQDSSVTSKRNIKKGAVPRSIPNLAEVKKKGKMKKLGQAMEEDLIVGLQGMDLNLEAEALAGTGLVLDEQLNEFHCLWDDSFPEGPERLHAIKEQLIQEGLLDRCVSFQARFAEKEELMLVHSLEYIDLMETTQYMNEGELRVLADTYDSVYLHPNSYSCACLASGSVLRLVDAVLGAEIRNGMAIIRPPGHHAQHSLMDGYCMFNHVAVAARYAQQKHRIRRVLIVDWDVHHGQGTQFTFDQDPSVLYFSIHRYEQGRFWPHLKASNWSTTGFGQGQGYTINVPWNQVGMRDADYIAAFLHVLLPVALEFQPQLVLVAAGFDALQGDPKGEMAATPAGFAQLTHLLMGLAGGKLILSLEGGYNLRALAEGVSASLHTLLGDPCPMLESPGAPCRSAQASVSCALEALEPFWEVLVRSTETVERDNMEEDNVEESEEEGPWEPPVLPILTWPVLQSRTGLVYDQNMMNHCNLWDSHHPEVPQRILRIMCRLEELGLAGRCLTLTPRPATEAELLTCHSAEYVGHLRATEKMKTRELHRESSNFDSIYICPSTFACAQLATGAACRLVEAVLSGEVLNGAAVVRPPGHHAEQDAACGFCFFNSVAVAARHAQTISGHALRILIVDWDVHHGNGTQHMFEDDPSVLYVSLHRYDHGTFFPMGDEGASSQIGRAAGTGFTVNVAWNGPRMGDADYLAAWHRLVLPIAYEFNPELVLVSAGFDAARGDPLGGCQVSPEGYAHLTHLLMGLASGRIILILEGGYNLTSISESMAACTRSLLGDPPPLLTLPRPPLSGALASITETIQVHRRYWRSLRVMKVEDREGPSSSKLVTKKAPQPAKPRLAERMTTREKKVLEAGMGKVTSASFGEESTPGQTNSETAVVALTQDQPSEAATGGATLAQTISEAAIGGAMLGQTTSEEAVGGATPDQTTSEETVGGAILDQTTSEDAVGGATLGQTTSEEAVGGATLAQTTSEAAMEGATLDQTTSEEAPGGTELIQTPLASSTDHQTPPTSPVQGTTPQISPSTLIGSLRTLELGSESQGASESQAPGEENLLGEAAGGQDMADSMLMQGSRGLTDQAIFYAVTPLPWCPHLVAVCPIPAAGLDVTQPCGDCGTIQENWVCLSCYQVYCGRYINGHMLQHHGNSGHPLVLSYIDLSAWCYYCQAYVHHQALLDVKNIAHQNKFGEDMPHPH
Description: Fluorescence-based enzyme activity assay. The class given is biochemical. Conditions: substrate with fluorescent peptide of p53 residues 379-382, 30°C for 1 hour. The protocol:
Experimental Example 1: Fluorescence-based enzyme activity assay
In order to measure the inhibitory effect of the compounds on the activity of histone deacetylase 6 (HDAC6), an enzyme activity assay was performed to evaluate the enzyme activity by reacting the human HDAC6 enzyme with a substrate to which a fluorescent peptide of p53 residues 379-382 was attached. The test compounds were dissolved in 100% DMSO at a concentration of 10 mM to prepare a stock solution. A starting concentration of 30 µM was prepared from the stock solution, followed by 1/3 serial dilutions to prepare the test buffer solution. Trichostatin A (TSA)-which is the reference compound used to confirm the validity of the experiment-was serially diluted by 1/3 with the test buffer solution, starting from the highest concentration of 1 µM. To react the test compounds and TSA prepared in the test buffer with the HDAC6 enzyme, they were dispensed into a 96-well black plate and spin-down of the plate was performed. Then, the reaction was carried out at room temperature for 10 minutes. After 10 minutes, the substrate was dispensed, and the plate was sealed. The reaction was carried out at 30°C for 1 hour under light-blocking conditions. Fluorescence values were measured using a plate reader (wavelength: excitation/emission = 360/460 nm). The fluorescence measurements were normalized to the HDAC6 enzyme-treated group as 100% and the untreated group as 0%, respectively. […]
`O=c1cc(-c2noc(C(F)(F)F)n2)ccn1CC#Cc1ccccc1F` [Example 6, 1-(3-(2-fluorophenyl)prop-2-yn-1-yl)-4-(5-(trifluoromethyl)-1,2,4-oxadiazol-3-yl)pyridin-2(1H)-one] displayed an IC50 of 500 to 1000 nM.
The result for `O=c1cc(-c2noc(C(F)(F)F)n2)ccn1CC#Cc1ccccc1` [Example 2, 1-(3-phenylprop-2-yn-1-yl)-4-(5-(trifluoromethyl)-1,2,4-oxadiazol-3-yl)pyridin-2(1H)-one] reads 500 to 1000 nM.
Under `O=c1cc(-c2nnc(C(F)F)o2)ccn1CC#Cc1ccccn1` [Example 10, 4-(5-(difluoromethyl)-1,3,4-oxadiazol-2-yl)-1-(3-(pyridin-2-yl)prop-2-yn-1-yl)pyridin-2(1H)-one] stands under 100 nM.
`Cc1ncc(C#CCn2ccc(-c3nnc(C(F)F)o3)cc2=O)[nH]1` [Example 42, 4-(5-(difluoromethyl)-1,3,4-oxadiazol-2-yl)-1-(3-(2-methyl-1H-imidazol-5-yl)prop-2-yn-1-yl)pyridin-2(1H)-one] displayed an IC50 of under 100 nM.
The result for `O=c1cc(-c2noc(C(F)(F)F)n2)ccn1CC#Cc1ccccn1` [Example 5, 1-(3-(pyridin-2-yl)prop-2-yn-1-yl)-4-(5-(trifluoromethyl)-1,2,4-oxadiazol-3-yl)pyridin-2(1H)-one] reads 100 to 500 nM; that for `O=c1cc(-c2nnc(C(F)F)o2)ccn1CC#Cc1cccnc1` [Example 9, 4-(5-(difluoromethyl)-1,3,4-oxadiazol-2-yl)-1-(3-(pyridin-3-yl)prop-2-yn-1-yl)pyridin-2(1H)-one], under 100 nM; that for `O=c1cc(-c2nnc(C(F)F)o2)ccn1CC#Cc1cccc(Cl)n1` [Example 22, 1-(3-(6-chloropyridin-2-yl)prop-2-yn-1-yl)-4-(5-(difluoromethyl)-1,3,4-oxadiazol-2-yl)pyridin-2(1H)-one], under 100 nM.
Under `O=c1cc(-c2nnc(C(F)F)o2)ccn1CC#Cc1ccc(Cl)cc1` [Example 14, 1-(3-(4-chlorophenyl)prop-2-yn-1-yl)-4-(5-(difluoromethyl)-1,3,4-oxadiazol-2-yl)pyridin-2(1H)-one] stands under 100 nM; under `O=c1cc(-c2nnc(C(F)F)o2)ccn1CC#Cc1ccccc1` [Example 1, 4-(5-(difluoromethyl)-1,3,4-oxadiazol-2-yl)-1-(3-phenylprop-2-yn-1-yl)pyridin-2(1H)-one], under 100 nM; under `O=c1cc(-c2nnc(C(F)F)o2)ccn1CC#Cc1ccc2scnc2c1` [Example 40, 1-(3-(benzo[d]thiazol-5-yl)prop-2-yn-1-yl)-4-(5-(difluoromethyl)-1,3,4-oxadiazol-2-yl)pyridin-2(1H)-one], 100 to 500 nM.
The result for `O=c1cc(-c2nnc(C(F)F)o2)ccn1CC#Cc1ccc(F)c(Cl)c1` [Example 34, 1-(3-(3-chloro-4-fluorophenyl)prop-2-yn-1-yl)-4-(5-(difluoromethyl)-1,3,4-oxadiazol-2-yl)pyridin-2(1H)-one] reads under 100 nM; that for `O=c1cc(-c2nnc(C(F)F)o2)ccn1CC#Cc1ccccc1F` [Example 13, 4-(5-(difluoromethyl)-1,3,4-oxadiazol-2-yl)-1-(3-(2-fluorophenyl)prop-2-yn-1-yl)pyridin-2(1H)-one], under 100 nM.
In turn, `Cc1cncc(C#CCn2ccc(-c3nnc(C(F)F)o3)cc2=O)c1` [Example 29, 4-(5-(difluoromethyl)-1,3,4-oxadiazol-2-yl)-1-(3-(5-methylpyridin-3-yl)prop-2-yn-1-yl)pyridin-2(1H)-one] had an IC50 of under 100 nM.
The result for `O=c1cc(-c2noc(C(F)(F)F)n2)ccn1CC#Cc1ccncc1` [Example 3, 1-(3-(pyridin-4-yl)prop-2-yn-1-yl)-4-(5-(trifluoromethyl)-1,2,4-oxadiazol-3-yl)pyridin-2(1H)-one] reads 100 to 500 nM; that for `Cc1nc2ccc(C#CCOc3cc(-c4nnc(C(F)F)o4)ccn3)cc2s1` [Example 41], 500 to 1000 nM; that for `O=c1cc(-c2nnc(C(F)F)o2)ccn1CC#Cc1ccncc1` [Example 8, 4-(5-(difluoromethyl)-1,3,4-oxadiazol-2-yl)-1-(3-(pyridin-4-yl)prop-2-yn-1-yl)pyridin-2(1H)-one], under 100 nM.
The result for `COc1cccc(C#CCn2ccc(-c3nnc(C(F)F)o3)cc2=O)c1` [Example 21, 4-(5-(difluoromethyl)-1,3,4-oxadiazol-2-yl)-1-(3-(3-methoxyphenyl)prop-2-yn-1-yl)pyridin-2(1H)-one] reads under 100 nM.
Under `O=c1cc(-c2nnc(C(F)F)o2)ccn1CC#Cc1ccccc1Cl` [Example 16, 1-(3-(2-chlorophenyl)prop-2-yn-1-yl)-4-(5-(difluoromethyl)-1,3,4-oxadiazol-2-yl)pyridin-2(1H)-one] stands under 100 nM; under `O=c1cc(-c2nnc(C(F)F)o2)ccn1CC#Cc1cccc(Cl)c1F` [Example 33, 1-(3-(3-chloro-2-fluorophenyl)prop-2-yn-1-yl)-4-(5-(difluoromethyl)-1,3,4-oxadiazol-2-yl)pyridin-2(1H)-one], under 100 nM.
Compound `CS(=O)(=O)c1cccc(C#CCn2ccc(-c3nnc(C(F)F)o3)cc2=O)c1` [Example 32, 4-(5-(difluoromethyl)-1,3,4-oxadiazol-2-yl)-1-(3-(3-(methylsulfonyl)phenyl)prop-2-yn-1-yl)pyridin-2(1H)-one] gave an IC50 of under 100 nM.
Under `O=c1cc(-c2noc(C(F)(F)F)n2)ccn1CC#Cc1cccnc1` [Example 4, 1-(3-(pyridin-3-yl)prop-2-yn-1-yl)-4-(5-(trifluoromethyl)-1,2,4-oxadiazol-3-yl)pyridin-2(1H)-one] stands 100 to 500 nM.
The result for `O=c1cc(-c2nnc(C(F)F)o2)ccn1CC#Cc1cc(F)cc(Cl)c1` [Example 35, 1-(3-(3-chloro-5-fluorophenyl)prop-2-yn-1-yl)-4-(5-(difluoromethyl)-1,3,4-oxadiazol-2-yl)pyridin-2(1H)-one] reads under 100 nM; that for `O=c1cc(-c2nnc(C(F)F)o2)ccn1CC#Cc1ccsc1` [Example 43, 4-(5-(difluoromethyl)-1,3,4-oxadiazol-2-yl)-1-(3-(thiophen-3-yl)prop-2-yn-1-yl)pyridin-2(1H)-one], under 100 nM; that for `O=c1cc(-c2nnc(C(F)F)o2)ccn1CC#Cc1cccc(F)c1` [Example 12, 4-(5-(difluoromethyl)-1,3,4-oxadiazol-2-yl)-1-(3-(3-fluorophenyl)prop-2-yn-1-yl)pyridin-2(1H)-one], under 100 nM.
The result for `O=c1cc(-c2nnc(C(F)F)o2)ccn1CC#Cc1ccc(F)cc1` [Example 11, 4-(5-(difluoromethyl)-1,3,4-oxadiazol-2-yl)-1-(3-(4-fluorophenyl)prop-2-yn-1-yl)pyridin-2(1H)-one] reads under 100 nM.
